The record followed here is ChEMBL document CHEMBL4354842, “A Series of Compounds Bearing a Dipyrido-Pyrimidine Scaffold Acting as Novel Human and Insect Pest Chitinase Inhibitors” (J Med Chem, 2020).

Activity calls are given as the source filed them. No cut-off for these calls is given here.

In assay [1] the target is T1, Chitotriosidase-1 (Homo sapiens, UniProt Q13231). Description: Inhibition of human CHIT1 catalytic domain overexpressed in Pichia pastoris at 50 uM using 4MU-(GlcNAc)2 as substrate after 30 mins by fluorescence based microplate reader analysis relative to control.
Target sequence in this assay (Q13231 22-466 limits assumed): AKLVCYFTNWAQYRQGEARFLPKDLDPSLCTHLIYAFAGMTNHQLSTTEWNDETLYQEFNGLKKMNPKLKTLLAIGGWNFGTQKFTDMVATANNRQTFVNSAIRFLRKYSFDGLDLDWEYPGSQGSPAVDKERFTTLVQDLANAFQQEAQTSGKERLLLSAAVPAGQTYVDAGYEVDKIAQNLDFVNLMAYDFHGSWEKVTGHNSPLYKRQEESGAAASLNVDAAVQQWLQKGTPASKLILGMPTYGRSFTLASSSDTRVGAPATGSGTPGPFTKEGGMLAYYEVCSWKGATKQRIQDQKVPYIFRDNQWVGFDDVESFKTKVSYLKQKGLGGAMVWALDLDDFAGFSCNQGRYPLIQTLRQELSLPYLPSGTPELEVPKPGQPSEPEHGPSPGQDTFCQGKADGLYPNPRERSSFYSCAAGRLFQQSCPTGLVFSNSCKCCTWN
The target of assay [2] is Chitinase (Ostrinia furnacalis) (UniProt Q4AE59). Description: Inhibition of Ostrinia furnacalis chitinase h catalytic domain overexpressed in Pichia pastoris at 1 uM using 4MU-(GlcNAc)2 as substrate after 30 mins by fluorescence based microplate reader analysis.
Assay [3] has as its target Chitotriosidase-1 (Mus musculus, UniProt Q9D7Q1). Description: Inhibition of mouse CHIT1 catalytic domain overexpressed in Pichia pastoris using 4MU-(GlcNAc)2 as substrate after 30 mins by fluorescence based microplate reader analysis.
Assay [4] concerns the target T2, Chitinase B (Serratia marcescens, UniProt P11797).
T2 sequence (P11797 whole entry): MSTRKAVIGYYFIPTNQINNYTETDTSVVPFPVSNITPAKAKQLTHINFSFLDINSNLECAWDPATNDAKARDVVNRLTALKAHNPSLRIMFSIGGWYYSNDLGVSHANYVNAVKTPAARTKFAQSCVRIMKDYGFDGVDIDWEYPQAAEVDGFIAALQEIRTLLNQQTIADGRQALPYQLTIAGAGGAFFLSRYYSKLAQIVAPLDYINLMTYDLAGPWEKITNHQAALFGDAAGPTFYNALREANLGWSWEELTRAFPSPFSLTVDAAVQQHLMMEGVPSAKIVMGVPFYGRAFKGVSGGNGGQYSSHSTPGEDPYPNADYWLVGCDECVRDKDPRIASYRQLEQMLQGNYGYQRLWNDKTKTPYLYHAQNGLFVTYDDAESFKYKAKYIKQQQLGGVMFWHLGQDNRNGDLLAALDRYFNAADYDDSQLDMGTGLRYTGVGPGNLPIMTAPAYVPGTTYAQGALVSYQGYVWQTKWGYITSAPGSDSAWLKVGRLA
Description: Binding affinity to Serratia marcescens chitinase b catalytic domain overexpressed in Escherichia coli BL21(DE3) cells by isothermal titration calorimetry.

Assay [5] concerns the target T3, Chitinase B (Serratia marcescens) (UniProt P11797).
T3 sequence (whole entry): T2 sequence (P11797 whole entry)
Description: Binding affinity to Serratia marcescens chitinase b catalytic domain overexpressed in Escherichia coli BL21(DE3) cells assessed as association constant by isothermal titration calorimetry.

The target of assay [6] is T4, Chitinase (Ostrinia furnacalis, UniProt Q4AE59). Description: Inhibition of Ostrinia furnacalis chitinase h catalytic domain overexpressed in Pichia pastoris using 4MU-(GlcNAc)2 as substrate after 30 mins by fluorescence based microplate reader analysis.
Assay [7] addresses T1, Chitotriosidase-1. Description: Inhibition of human CHIT1 catalytic domain overexpressed in Pichia pastoris using 4MU-(GlcNAc)2 as substrate after 30 mins by fluorescence based microplate reader analysis.
Target sequence in this assay (Q13231 whole entry, the tested form may be a part): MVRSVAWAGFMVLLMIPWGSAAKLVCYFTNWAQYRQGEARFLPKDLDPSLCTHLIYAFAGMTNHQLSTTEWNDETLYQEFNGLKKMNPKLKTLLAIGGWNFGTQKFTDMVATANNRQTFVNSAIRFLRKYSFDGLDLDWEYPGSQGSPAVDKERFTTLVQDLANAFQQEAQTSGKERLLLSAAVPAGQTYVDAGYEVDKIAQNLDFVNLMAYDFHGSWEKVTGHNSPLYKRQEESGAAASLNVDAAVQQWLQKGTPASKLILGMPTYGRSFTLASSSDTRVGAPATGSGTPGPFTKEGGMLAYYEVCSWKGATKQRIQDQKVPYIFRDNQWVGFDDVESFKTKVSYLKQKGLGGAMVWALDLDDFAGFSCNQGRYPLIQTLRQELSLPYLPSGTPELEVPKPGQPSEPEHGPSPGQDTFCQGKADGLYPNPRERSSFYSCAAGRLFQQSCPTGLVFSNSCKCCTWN
Assay [8] deals with T1, Chitotriosidase-1. Description: Inhibition of human CHIT1 catalytic domain overexpressed in Pichia pastoris at 10 uM using 4MU-(GlcNAc)2 as substrate after 30 mins by fluorescence based microplate reader analysis.
Target sequence in this assay (Q13231 22-466 limits assumed): as the sequence (Q13231 22-466 limits assumed) above
The target in assay [9] is T4, Chitinase. Description: Binding affinity to Ostrinia furnacalis chitinase h catalytic domain overexpressed in Pichia pastoris by isothermal titration calorimetry.
The target of assay [10] is T5, Acidic mammalian chitinase (Homo sapiens, UniProt Q9BZP6). Description: Inhibition of human acidic mammalian chitinase catalytic domain overexpressed in Pichia pastoris at 10 uM using 4MU-(GlcNAc)2 as substrate after 30 mins by fluorescence based microplate reader analysis.
Target sequence in this assay (Q9BZP6 22-476 limits assumed): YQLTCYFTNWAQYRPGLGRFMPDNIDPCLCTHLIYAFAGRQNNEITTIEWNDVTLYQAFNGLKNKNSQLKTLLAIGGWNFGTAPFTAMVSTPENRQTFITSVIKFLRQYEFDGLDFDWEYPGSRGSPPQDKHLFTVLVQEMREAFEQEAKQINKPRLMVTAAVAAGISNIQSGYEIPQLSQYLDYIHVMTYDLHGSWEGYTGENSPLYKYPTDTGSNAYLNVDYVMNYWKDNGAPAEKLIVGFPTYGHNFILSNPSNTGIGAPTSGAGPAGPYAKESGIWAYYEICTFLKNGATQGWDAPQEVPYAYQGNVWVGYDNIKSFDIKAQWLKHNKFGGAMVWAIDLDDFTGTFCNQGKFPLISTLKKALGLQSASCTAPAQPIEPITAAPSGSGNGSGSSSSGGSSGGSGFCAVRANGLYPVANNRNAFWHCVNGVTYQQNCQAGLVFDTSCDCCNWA
The target in assay [11] is T1, Chitotriosidase-1. Description: Binding affinity to human CHIT1 catalytic domain overexpressed in Pichia pastoris assessed as association constant by isothermal titration calorimetry.
Target sequence in this assay (Q13231 22-466 limits assumed): as the sequence (Q13231 22-466 limits assumed) above
Assay [12] concerns the target T5, Acidic mammalian chitinase. Description: Inhibition of human acidic mammalian chitinase catalytic domain overexpressed in Pichia pastoris using 4MU-(GlcNAc)2 as substrate after 30 mins by fluorescence based microplate reader analysis.
Target sequence in this assay (Q9BZP6 whole entry, the tested form may be a part): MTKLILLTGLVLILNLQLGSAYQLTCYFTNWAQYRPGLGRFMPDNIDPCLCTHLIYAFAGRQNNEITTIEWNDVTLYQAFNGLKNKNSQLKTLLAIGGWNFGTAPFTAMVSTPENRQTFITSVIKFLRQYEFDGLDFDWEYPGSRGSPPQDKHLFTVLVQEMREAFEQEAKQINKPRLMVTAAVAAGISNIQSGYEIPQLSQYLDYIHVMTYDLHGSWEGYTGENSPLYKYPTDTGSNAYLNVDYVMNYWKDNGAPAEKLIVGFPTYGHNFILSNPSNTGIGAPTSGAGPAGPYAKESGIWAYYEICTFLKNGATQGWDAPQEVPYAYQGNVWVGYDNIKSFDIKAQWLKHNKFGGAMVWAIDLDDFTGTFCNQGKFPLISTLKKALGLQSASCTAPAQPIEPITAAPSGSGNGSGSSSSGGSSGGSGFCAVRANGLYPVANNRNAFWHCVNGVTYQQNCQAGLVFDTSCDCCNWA
The target in assay [13] is T3, Chitinase B (Serratia marcescens). Description: Inhibition of Serratia marcescens chitinase b catalytic domain overexpressed in Escherichia coli BL21(DE3) cells at 1 uM using 4MU-(GlcNAc)2 as substrate after 30 mins by fluorescence based microplate reader analysis.
Assay [14] concerns the target T1, Chitotriosidase-1. Description: Binding affinity to human CHIT1 catalytic domain overexpressed in Pichia pastoris assessed by isothermal titration calorimetry.
Target sequence in this assay (Q13231 whole entry, the tested form may be a part): as the sequence (Q13231 whole entry, the tested form may be a part) above
Assay [15] concerns the target Acidic mammalian chitinase (Mus musculus, UniProt Q91XA9). Description: Inhibition of mouse acidic mammalian chitinase catalytic domain overexpressed in Pichia pastoris using 4MU-(GlcNAc)2 as substrate after 30 mins by fluorescence based microplate reader analysis.
Assay [16] has as its target T2, Chitinase B. Description: Inhibition of Serratia marcescens chitinase b catalytic domain overexpressed in Escherichia coli BL21(DE3) cells using 4MU-(GlcNAc)2 as substrate after 30 mins by fluorescence based microplate reader analysis.
The test system of assay [17] is Mus musculus. Description: Antifibrotic activity in bleomycin-induced C57BL/6 mouse model of pulmonary fibrosis assessed as increase in number of interstitial macrophages in lungs at 2 ug/mouse, ip administered for 11 days and measured on day 12 post treatment by flow cytometric analysis. It is filed as functional, organism-based.
The test system of assay [18] is Mus musculus. Description: Antifibrotic activity in bleomycin-induced C57BL/6 mouse model of pulmonary fibrosis assessed as effect on Chit1 expression at 2 ug/mouse, ip administered for 11 days and measured on day 12 post treatment by RT-qPCR analysis. The class given is functional, organism-based.
Assay [19] deals with 3',5'-cyclic-AMP phosphodiesterase 4D (Homo sapiens) (UniProt Q08499). Description: Inhibition of PDE4D2 (unknown origin) at 10 uM relative to control.
Assay [20] has as its system Mus musculus. Description: Antifibrotic activity in bleomycin-induced C57BL/6 mouse model of pulmonary fibrosis assessed as increase in number of PDL2+ alveolar macrophages in lungs at 2 ug/mouse, ip administered for 11 days and measured on day 12 post treatment by flow cytometric analysis. It is filed as functional, organism-based.
Assay [21] concerns the target Chitotriosidase-1 (Mus musculus) (UniProt Q9D7Q1). Description: Inhibition of chitinase in mouse BALF at 1 ug using 4-MU-(GlcNAc)2 substrate as substrate after 15 mins relative to control.
The subject of assay [22] is Mus musculus. Description: Antifibrotic activity in bleomycin-induced C57BL/6 mouse model of pulmonary fibrosis assessed as effect on Areg expression at 2 ug/mouse, ip administered for 11 days and measured on day 12 post treatment by RT-qPCR analysis. The class given is functional, organism-based.
Assay [23] has as its system Mus musculus. Description: Antifibrotic activity in bleomycin-induced C57BL/6 mouse model of pulmonary fibrosis assessed as effect on IL33 expression at 2 ug/mouse, ip administered for 11 days and measured on day 12 post treatment by RT-qPCR analysis. It is filed as functional, organism-based.
For assay [24], the system named is Mus musculus. Description: Antifibrotic activity in bleomycin-induced C57BL/6 mouse model of pulmonary fibrosis assessed as increase in number of monocytes in lungs at 2 ug/mouse, ip administered for 11 days and measured on day 12 post treatment by flow cytometric analysis. It is filed as functional, organism-based.
Assay [25] deals with Mus musculus. Description: In vivo inhibition of human chitinase in C57BL/6 mouse assesed as reduction in bleomycin-induced chitinase level in BALF at 2 ug/mouse, ip administered for 11 days and measured on day 12 by necropsy analysis. It is filed as functional.
For assay [26], the system named is Mus musculus. Description: Antifibrotic activity in bleomycin-induced C57BL/6 mouse model of pulmonary fibrosis assessed as effect on TGFbeta expression at 2 ug/mouse, ip administered for 11 days and measured on day 12 post treatment by RT-qPCR analysis. It is filed as functional, organism-based.
Assay [27] has as its target Chitotriosidase-1 (Mus musculus) (UniProt Q9D7Q1). Description: Inhibition of chitinase in mouse BALF at 40 ug using 4-MU-(GlcNAc)2 substrate as substrate after 15 mins relative to control.
The test system of assay [28] is Mus musculus. Description: Antifibrotic activity in bleomycin-induced C57BL/6 mouse model of pulmonary fibrosis assessed as effect on IL13 expression at 2 ug/mouse, ip administered for 11 days and measured on day 12 post treatment by RT-qPCR analysis. The class given is functional, organism-based.
Assay [29] relates to Mus musculus. Description: Antifibrotic activity in bleomycin-induced C57BL/6 mouse model of pulmonary fibrosis assessed as effect on IL5 expression at 2 ug/mouse, ip administered for 11 days and measured on day 12 post treatment by RT-qPCR analysis. It is filed as functional, organism-based.

Chain of Chitinase (Ostrinia furnacalis) (Q4AE59 as listed by the source): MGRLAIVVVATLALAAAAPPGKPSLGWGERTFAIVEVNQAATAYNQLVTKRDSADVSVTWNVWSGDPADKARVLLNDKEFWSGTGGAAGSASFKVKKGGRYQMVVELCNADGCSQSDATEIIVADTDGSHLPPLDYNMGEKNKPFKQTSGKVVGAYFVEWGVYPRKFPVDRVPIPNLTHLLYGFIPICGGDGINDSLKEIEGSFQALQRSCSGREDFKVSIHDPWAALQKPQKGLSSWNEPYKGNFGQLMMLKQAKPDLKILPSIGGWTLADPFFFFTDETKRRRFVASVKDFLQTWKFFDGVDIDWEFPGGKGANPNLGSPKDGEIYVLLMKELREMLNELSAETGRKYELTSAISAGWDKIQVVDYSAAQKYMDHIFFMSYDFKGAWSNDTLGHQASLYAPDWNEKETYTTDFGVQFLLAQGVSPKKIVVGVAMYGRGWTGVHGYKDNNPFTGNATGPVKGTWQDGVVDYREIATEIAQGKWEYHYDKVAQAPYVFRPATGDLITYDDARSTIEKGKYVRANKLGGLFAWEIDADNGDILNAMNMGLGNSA
T4 sequence (Q4AE59 whole entry, the tested form may be a part): as the sequence (Q4AE59 as listed by the source) above
Chain of Chitotriosidase-1 (Mus musculus) (Q9D7Q1 22-464 limits assumed): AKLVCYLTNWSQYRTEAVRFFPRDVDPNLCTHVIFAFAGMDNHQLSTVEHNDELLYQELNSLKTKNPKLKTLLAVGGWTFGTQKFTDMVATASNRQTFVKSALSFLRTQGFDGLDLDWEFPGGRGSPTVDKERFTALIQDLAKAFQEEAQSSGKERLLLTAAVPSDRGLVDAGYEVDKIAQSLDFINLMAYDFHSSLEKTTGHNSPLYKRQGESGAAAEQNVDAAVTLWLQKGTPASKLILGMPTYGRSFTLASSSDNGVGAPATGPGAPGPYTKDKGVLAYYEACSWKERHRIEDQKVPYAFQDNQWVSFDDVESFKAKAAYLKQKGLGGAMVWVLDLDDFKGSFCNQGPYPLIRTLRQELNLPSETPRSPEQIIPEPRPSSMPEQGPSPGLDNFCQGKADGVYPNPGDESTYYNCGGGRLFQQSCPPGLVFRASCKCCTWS
Chain of Acidic mammalian chitinase (Mus musculus, UniProt Q91XA9) (Q91XA9 whole entry, the tested form may be a part): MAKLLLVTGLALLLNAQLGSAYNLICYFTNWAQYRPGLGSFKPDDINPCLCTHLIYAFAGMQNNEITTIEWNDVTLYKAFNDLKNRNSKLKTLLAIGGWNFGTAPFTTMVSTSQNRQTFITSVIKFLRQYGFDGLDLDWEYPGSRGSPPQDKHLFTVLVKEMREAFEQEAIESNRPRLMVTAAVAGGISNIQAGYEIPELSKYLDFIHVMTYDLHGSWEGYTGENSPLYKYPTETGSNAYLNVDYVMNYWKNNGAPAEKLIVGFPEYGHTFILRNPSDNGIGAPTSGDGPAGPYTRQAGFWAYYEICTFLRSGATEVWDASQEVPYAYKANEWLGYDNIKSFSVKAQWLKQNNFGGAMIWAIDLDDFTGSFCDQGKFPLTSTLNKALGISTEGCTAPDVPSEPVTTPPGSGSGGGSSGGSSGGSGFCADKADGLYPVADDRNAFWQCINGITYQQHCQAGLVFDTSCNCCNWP
Chain of Chitotriosidase-1 (Mus musculus, UniProt Q9D7Q1) (Q9D7Q1 whole entry, the tested form may be a part): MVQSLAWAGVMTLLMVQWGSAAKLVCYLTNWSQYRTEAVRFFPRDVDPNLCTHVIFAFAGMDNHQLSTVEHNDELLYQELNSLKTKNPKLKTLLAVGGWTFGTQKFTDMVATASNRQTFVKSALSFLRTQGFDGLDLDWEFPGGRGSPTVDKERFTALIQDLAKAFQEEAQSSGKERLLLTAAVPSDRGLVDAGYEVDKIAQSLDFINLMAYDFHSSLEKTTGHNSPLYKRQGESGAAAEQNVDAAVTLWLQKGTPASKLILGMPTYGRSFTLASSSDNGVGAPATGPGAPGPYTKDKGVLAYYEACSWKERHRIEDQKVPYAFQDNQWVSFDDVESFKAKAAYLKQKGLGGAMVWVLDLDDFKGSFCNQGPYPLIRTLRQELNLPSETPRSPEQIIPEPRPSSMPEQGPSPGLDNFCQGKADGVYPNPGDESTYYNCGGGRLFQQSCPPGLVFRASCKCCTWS
Chain of 3',5'-cyclic-AMP phosphodiesterase 4D (Homo sapiens) (Q08499 whole entry): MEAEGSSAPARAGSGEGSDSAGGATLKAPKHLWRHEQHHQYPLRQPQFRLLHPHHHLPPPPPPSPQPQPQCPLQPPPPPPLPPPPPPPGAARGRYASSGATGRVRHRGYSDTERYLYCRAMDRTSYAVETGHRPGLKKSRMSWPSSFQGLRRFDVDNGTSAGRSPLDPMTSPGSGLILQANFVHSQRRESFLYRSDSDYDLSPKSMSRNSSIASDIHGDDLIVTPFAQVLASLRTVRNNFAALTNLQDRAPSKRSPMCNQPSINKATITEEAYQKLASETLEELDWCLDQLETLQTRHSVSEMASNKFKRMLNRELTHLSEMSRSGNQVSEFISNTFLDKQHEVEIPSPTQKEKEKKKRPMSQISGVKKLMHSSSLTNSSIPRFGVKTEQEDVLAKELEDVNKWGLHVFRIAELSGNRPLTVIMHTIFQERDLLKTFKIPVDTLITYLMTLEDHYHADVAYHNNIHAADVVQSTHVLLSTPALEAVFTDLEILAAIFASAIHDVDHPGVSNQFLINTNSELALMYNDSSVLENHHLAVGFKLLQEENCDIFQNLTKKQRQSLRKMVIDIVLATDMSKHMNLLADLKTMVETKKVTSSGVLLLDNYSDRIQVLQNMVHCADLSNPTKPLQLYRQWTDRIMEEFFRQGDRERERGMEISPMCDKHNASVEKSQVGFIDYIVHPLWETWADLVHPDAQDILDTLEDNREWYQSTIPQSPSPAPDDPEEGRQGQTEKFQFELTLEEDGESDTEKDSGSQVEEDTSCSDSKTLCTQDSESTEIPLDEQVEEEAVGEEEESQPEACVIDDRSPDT

For the compound `N=c1c(C(=O)NCC2CCCO2)cc2c(=O)n3ccccc3nc2n1Cc1ccco1` (configuration not stated), the inhibition on Chitotriosidase-1 [1] came to 100%.

With `Cc1cccn2c(=O)c3cc(C(=O)NCc4cccnc4)c(=N)n(CC4CCCO4)c3nc12` (configuration not stated), the inhibition result (in assay [2]; on Chitotriosidase-1 [8]; in assay [10]; in assay [13]) was “Active” in each case. Moreover, the inhibition constant Ki is 1940 nM on Chitotriosidase-1 [3]; 9 nM at Chitinase [6]; 1120 nM on Chitotriosidase-1 [7]; 9720 nM in [12]; 1380 nM in assay [15]; 58 nM at Chitinase B [16]. In addition, the values for the Kd at Chitinase B [4], on Chitinase [9] and on Chitotriosidase-1 [14] were 190 nM, 85 nM and 1120 nM, respectively. Further, the figures for the Ka (in assay [5]; at Chitotriosidase-1 [11]) were 5.1e+06 M⁻¹ and 895000 M⁻¹, respectively.

Turning to `CC(NC(=O)c1cc2c(=O)n3ccccc3nc2n(Cc2ccccc2)c1=N)c1ccccc1` (configuration not stated), the result in the assay with Mus musculus [17], in the assay with Mus musculus [20], in the assay on Mus musculus [24] and in the assay with Mus musculus [28] was Active. Further, the result in the assay with Mus musculus [18], in the assay on Mus musculus [22], in the assay with Mus musculus [23], in the assay with Mus musculus [26] and in the assay on Mus musculus [29] was inactive. Besides, the inhibition entry (in assay [2]; on Chitotriosidase-1 [8]; in [10]; in assay [13]) was “Active” in each case. The results for the inhibition in [19], in [21] and in assay [27] were 87.8%, 35% and 55%, respectively. Besides, the “inhibition (INH)” value in the assay with Mus musculus [25] came out at 100%.

Consider `COC(=O)c1cc2c(=O)n3ccccc3nc2n(Cc2cccnc2)c1=N`, for which the inhibition result (in assay [2]; at Chitotriosidase-1 [8]; in assay [10]; in assay [13]) was “inactive” throughout.

With `N=c1c(C(=O)NC2CCCCC2)cc2c(=O)n3ccccc3nc2n1Cc1cccnc1`, the inhibition result (in assay [2]; on Chitotriosidase-1 [8]; in assay [10]; in assay [13]) was “inactive” in each case.

In the case of `COCCCn1c(=N)c(C(=O)N[C@@H](C)c2ccccc2)cc2c(=O)n3ccccc3nc21`, the inhibition entry (in assay [2]; on Chitotriosidase-1 [8]; in assay [10]; in [13]) was “Active” throughout.

For the compound `COCCn1c(=N)c(C(=O)NCCN2CCCCC2)cc2c(=O)n3ccccc3nc21`, the inhibition result (in [2]; at Chitotriosidase-1 [8]; in [10]; in [13]) was “inactive” in each case.

As to `COCCCn1c(=N)c(C(=O)NCc2ccc(F)cc2)cc2c(=O)n3ccccc3nc21`, the inhibition entry (in assay [2]; at Chitotriosidase-1 [8]; in assay [10]; in assay [13]) was “inactive” in each case.

As for `COCCCn1c(=N)c(C(=O)NCc2ccc(OC)cc2)cc2c(=O)n3ccccc3nc21`, the inhibition result (in [2]; at Chitotriosidase-1 [8]; in [10]; in [13]) was “inactive” in each case.
